# Source: patent publication US12545653B2, “Compound as PPAR agonist and application thereof” (USA Elixiria Biotech Inc., priority 2019, dated 2026)
# Values joined by “and” are separate entries in the source; they are usually repeats but may differ in a detail not shown here. Equal values may be shown once.
# Experiments:
# [1] = system: dIoN-CCI rat model of trigeminal neuropathic pain; assay: Trigeminal neuralgia model (dIoN-CCI), Von Frey mechanical threshold; details: dIoN-CCI rats
# Text: A common rat model of trigeminal neuralgia is a chronic compression injury model (CCI) caused by ligation of the infraorbital nerve (IoN). In the present study, an improved rat model of trigeminal neuropathic pain was used, in which CCI is induced by ligation of distal segment of IoN (dIoN). Wild type male Sprague-Dawley rats with body weight 250 to 260 grams underwent dIoN-CCI surgery experiments. The mechanical threshold of pain in rats without surgery experiments will exceed 6 grams. If the dIoN-CCI surgery is successful, it will reduce the pain threshold to less than 2 grams.
# The mice were divided into the following 11 groups with 4 to 5 mice in each group. The formulation used for transdermal treatment is cream. […] The compound administration of each group starts on the third day after successful dIoN-CCI surgery. […] The method for detecting rat facial hypersensitivity is performed using Von Frey filaments. An analysis of variance (ANOVA) and Dunnett post hoc comparison test are used to compare the significance of the differences between different groups of data. The difference is significant with P<0.05.
# [2] = system: rat model of hyperglycemia-induced nephropathy; assay: Hyperglycemia-induced nephropathy model (streptozotocin); format: in vivo; details: streptozotocin rats, 5 mg/kg body weight/day in food, 90 days
# Procedure: The method was as follows:
# Wild type Sprague-Dawley rats were used. The compounds was dissolved in DMSO and mixed into food pellets. The animals were given ad libitum access to the pellets. […] In addition, 3 days before compound treatment, the animal of group 2 to 4 were given a single intraperitoneal injection of streptozotocin, and 3 days later, blood glucose levels were measured from tail veins using a glucose meter. Animals with blood glucose levels above 500˜650 milligrams per deciliter were considered as hyperglycemia and were used for further study. No any side effect, or significant body weight changes, or significant dietary changes were found during the administration. After 90 days after initiation of treatment, blood pressure values were measured with the tail cuff system. The day before the kidneys were harvested, animals were placed in metabolic cages for 24 h for urine collection, and albumin to creatinine ratio (ACR) was measured. Animals were then fasted for 12 hours and sacrificed under anesthesia with a 10% chloral hydrate solution (0.3 g/kg). Serum samples were isolated and biochemical parameters were analyzed with by enzyme colorimetry in an automatic analyzer (Roche) to determine the FBG (fasting blood glucose) level (unit millimole/L). In addition, fasting insulin (FINS) levels, where the units are milliIU/L, were determined by enzyme-linked immunosorbent assay (ELISA) method with anti-rat insulin antibodies, and TNF-α was detected by rat tumor necrosis factor-α (TNF-α) ELISA kit (BD). […] The difference is significant with P<0.05.
# [3] = Blood-brain barrier permeability: brain concentration after a single injection; format: in vivo, rat; details: male, rat, in vivo, ip, 10 mg/kg
# Procedure: The blood-brain barrier permeability of carbonyl-containing cyclic compounds is determined in in vivo studies. Healthy male rats used in the study were divided into compound group and control group. […] The brains were dissected, heated immediately at boiling water for 2 min, homogenized with methanol, and centrifuged. The upper layer was collected and dried under vacuum to remove solvents, and then resuspended in methanol. The above samples are filtered through a 0.45 micron nylon membrane, and then 20 microL of sample were load into a high-performance liquid chromatographic (HPLC) system (Model LC-16P, Shimadzu, Japan) to perform quantitative analysis.
# [4] = system: LN-229 cells; assay: Brain cancer model, LN-229 cells injected into the striatum, tumor volume; format: in vivo, mouse; details: mice with LN-229 cells in striatum, 5 mg/kg body weight/day
# Procedure: The treatment lasted for a total of 30 days. The compounds was dissolved in DMSO and mixed into food pellets. The animals were given ad libitum access to the pellets. […] The difference is significant with P<0.05.
compound,measurement,setting,value
"CCc1ccc(CC/C=C/c2ccc3c(c2)C(=O)CC3)cc1 [ELB00824, (E)-6-(4-(4-ethylphenyl)but-1-en-1-yl)-2,3-dihydro-1H-inden-1-one]",duration of anti-allodynic effect (mechanical threshold 10 grams and above),"[1]; IP, 20 mg/kg body weight",1.8 h
same,mechanical pain threshold after 1 hour of administration,"[1]; IP, 20 mg/kg body weight",12.8 ± 2.2 g
same,minimum effective anti-allodynic dose,[1]; oral,3 mg/kg
same,mechanical threshold 2 hours after oral administration,"[1]; oral 3 mg/kg body weight, Von Frey",4.2 ± 0.8 g
same,duration of the anti-allodynic effect,[1]; oral 10 mg/kg,2 h
same,mechanical pain threshold 2 hours after oral administration,"[1]; oral 10 mg/kg body weight, Von Frey",8.9 ± 2 g
same,duration of anti-allodynic effect (mechanical threshold 10 grams and above),"[1]; oral, 20 mg/kg body weight",0.7 h
same,mechanical pain threshold after 1 hour of administration,"[1]; oral, 20 mg/kg body weight",6.8 ± 1.9 g
same,anti-allodynic property relative to pioglitazone,"[1]; oral, from minimum effective doses",about 100 times
same,mechanical pain threshold after 1 hour of administration,"[1]; transdermal cream containing 7% ELB00824, 20 mg/kg body weight",19.8 ± 3.1 g
same,duration of anti-allodynic effect (mechanical threshold 10 grams and above),"[1]; transdermal, 20 mg/kg body weight",2.3 h
same,blood TNF-α level compared with disease control group,[2],significant TNF-α level reduction
same,insulin resistance index ISI=ln (FBG*FINS) compared with disease control group,[2],significant ISI increase
same,urine albumin to creatinine ratio (ACR) compared with disease control group,[2],significant ACR reduction
same,Cmax,[3],16.4 µM and 4830 ng/mL
same,AUC(0-t),[3]; AUC0-6 h,18700 ng·h/mL
same,AUC(0-t),[3]; AUC0-24 h,31500 ng·h/mL
same,tumor volume at 30 days compared with disease control group,[4],significant tumor volume reduction
